# Laboratory results published in PubChem BioAssay (NCI).
#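 GI50 marks 50% less growth. TGI is the concentration that stops growth completely.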
# Assays:
# Assay in all cases: growth of human tumour cells (NCI), 384-well format
# [1] = test system: NCI/ADR-RES ovarian
# [2] = test system: OVCAR-4 ovarian
# [3] = test system: SN12C renal
# [4] = test system: A549 NSCLC
# [5] = test system: UACC-257 melanoma
# [6] = test system: MDA-MB-231 breast
# [7] = test system: OVCAR-5 ovarian
# [8] = test system: BT-549 breast
# [9] = test system: UO-31 renal
# [10] = test system: SF-268 CNS
# [11] = test system: CCRF-CEM leukemia
# [12] = test system: NCI-H460 NSCLC
# [13] = test system: SF-295 CNS
# [14] = test system: PC-3 prostate
# [15] = test system: OVCAR-3 ovarian
# [16] = test system: KM12 colon
# [17] = test system: MDA-MB-468 breast
# [18] = test system: NCI-H522 lung
# [19] = test system: RXF 393 renal
# [20] = test system: M14 melanoma
# [21] = test system: NCI-H226 lung
# [22] = test system: UACC-62 melanoma
# [23] = test system: HOP-92 NSCLC
# [24] = test system: TK-10 renal
# [25] = test system: MCF7 breast
# [26] = test system: HCT-15 colon
# [27] = test system: MDA-MB-435 melanoma
# [28] = test system: NCI-H322M lung
# [29] = test system: SK-MEL-5 melanoma
# [30] = test system: SW-620 colon
# [31] = test system: SK-MEL-2 melanoma
# [32] = test system: K-562 leukemia
# [33] = test system: SF-539 CNS
# [34] = test system: COLO 205 colon
# [35] = test system: HL-60(TB) leukemia
# [36] = test system: ACHN renal
# [37] = test system: CAKI-1 renal
# [38] = test system: RPMI-8226 leukemia
# [39] = test system: LOX IMVI melanoma
# [40] = test system: T-47D breast
# [41] = test system: SNB-19 CNS
# [42] = test system: MALME-3M melanoma
# [43] = test system: HOP-62 NSCLC
# [44] = test system: HCT-116 colon
# [45] = test system: MOLT-4 leukemia
# [46] = test system: SR leukemia
# [47] = test system: IGROV1 ovarian
# [48] = test system: HCC-2998 colon
# [49] = test system: SK-MEL-28 melanoma
# [50] = test system: OVCAR-8 ovarian
# [51] = test system: HT29 colon
# [52] = test system: 786-0 renal
# [53] = test system: DU-145 prostate
# [54] = test system: NCI-H23 lung
# [55] = test system: SK-OV-3 ovarian
# [56] = test system: A498 renal
# [57] = test system: U251 glioblastoma
# [58] = test system: EKVX NSCLC
# [59] = test system: HS 578T breast
# [60] = test system: SNB-75 CNS
compound,measurement,setting,value
CNC(=O)n1ccc2cc(Oc3ccnc(NC(=O)c4ccc(C5CCN(CCO)CC5)cc4)c3)c(OCCOC)cc21,GI50,[1],4.83 µM
same,TGI,[1],16.6 µM
same,GI50,[2],1.38 µM
same,TGI,[2],2.83 µM
same,GI50,[3],3.5 µM
same,TGI,[3],9.77 µM
same,GI50,[4],3.21 µM
same,TGI,[4],11.1 µM
same,GI50,[5],1.42 µM
same,TGI,[5],2.73 µM
same,GI50,[6],1.65 µM
same,TGI,[6],3.17 µM
same,GI50,[7],1.97 µM
same,TGI,[7],7.92 µM
same,GI50,[8],1.37 µM
same,TGI,[8],3.06 µM
same,GI50,[9],0.498 µM
same,TGI,[9],1.74 µM
same,GI50,[10],1.77 µM
same,TGI,[10],3.65 µM
same,GI50,[11],1.74 µM
same,TGI,[11],3.13 µM
same,GI50,[12],1.65 µM
same,TGI,[12],3.1 µM
same,GI50,[13],1.82 µM
same,TGI,[13],3.76 µM
same,GI50,[14],2.31 µM
same,TGI,[14],4.65 µM
same,GI50,[15],2.03 µM
same,TGI,[15],3.65 µM
same,GI50,[16],1.84 µM
same,TGI,[16],3.65 µM
same,GI50,[17],1.86 µM
same,TGI,[17],3.28 µM
same,GI50,[18],2.13 µM
same,TGI,[18],3.85 µM
same,GI50,[19],0.304 µM
same,TGI,[19],0.913 µM
same,GI50,[20],1.91 µM
same,TGI,[20],3.33 µM
same,GI50,[21],0.0663 µM
same,TGI,[21],2.18 µM
same,GI50,[22],1.75 µM
same,TGI,[22],3.16 µM
same,GI50,[23],1.65 µM
same,TGI,[23],3.55 µM
same,GI50,[24],1.96 µM
same,TGI,[24],4.44 µM
same,GI50,[25],1.35 µM
same,TGI,[25],3.3 µM
same,GI50,[26],1.67 µM
same,TGI,[26],3.18 µM
same,GI50,[27],2.25 µM
same,TGI,[27],4.05 µM
same,GI50,[28],1.83 µM
same,TGI,[28],4.69 µM
same,GI50,[29],1.48 µM
same,TGI,[29],2.81 µM
same,GI50,[30],3.01 µM
same,TGI,[30],4.96 µM
same,GI50,[31],1.59 µM
same,TGI,[31],2.99 µM
same,GI50,[32],0.186 µM
same,TGI,[32],0.451 µM
same,GI50,[33],1.02 µM
same,TGI,[33],2.19 µM
same,GI50,[34],2.27 µM
same,TGI,[34],5.23 µM
same,GI50,[35],2.48 µM
same,TGI,[35],3.95 µM
same,GI50,[36],1.73 µM
same,TGI,[36],3.31 µM
same,GI50,[37],2.77 µM
same,TGI,[37],5.47 µM
same,GI50,[38],1.52 µM
same,TGI,[38],2.86 µM
same,GI50,[39],1.72 µM
same,TGI,[39],3.11 µM
same,GI50,[40],1.08 µM
same,TGI,[40],2.3 µM
same,GI50,[41],3.61 µM
same,TGI,[41],11.8 µM
same,GI50,[42],1.83 µM
same,TGI,[42],3.24 µM
same,GI50,[43],2.12 µM
same,TGI,[43],4.61 µM
same,GI50,[44],1.32 µM
same,TGI,[44],2.65 µM
same,GI50,[45],1.4 µM
same,TGI,[45],2.7 µM
same,GI50,[46],0.83 µM
same,TGI,[46],2.05 µM
same,GI50,[47],3.48 µM
same,TGI,[47],14 µM
same,GI50,[48],2.24 µM
same,TGI,[48],4.07 µM
same,GI50,[49],1.84 µM
same,TGI,[49],3.25 µM
same,GI50,[50],1.82 µM
same,TGI,[50],3.3 µM
same,GI50,[51],0.171 µM
same,TGI,[51],0.699 µM
same,GI50,[52],1.12 µM
same,TGI,[52],2.43 µM
same,GI50,[53],3.6 µM
same,TGI,[53],12.4 µM
same,GI50,[54],3.86 µM
same,TGI,[54],13.4 µM
same,GI50,[55],1.83 µM
same,TGI,[55],3.62 µM
same,GI50,[56],1.26 µM
same,TGI,[56],2.96 µM
same,GI50,[57],1.56 µM
same,TGI,[57],3.11 µM
CC(C)NC[C@@H](C(=O)N1CCN(c2ncnc3c2[C@H](C)C[C@H]3O)CC1)c1ccc(Cl)cc1,GI50,[1],> 100 µM
same,TGI,[1],> 100 µM
same,GI50,[2],76.8 µM
same,TGI,[2],> 100 µM
same,GI50,[3],23.8 µM
same,TGI,[3],> 100 µM
same,GI50,[4],18.2 µM
same,TGI,[4],> 100 µM
same,GI50,[5],14 µM
same,TGI,[5],27.1 µM
same,GI50,[6],44.9 µM
same,TGI,[6],> 100 µM
same,GI50,[7],18.4 µM
same,TGI,[7],> 100 µM
same,GI50,[8],0.636 µM
same,TGI,[8],11.8 µM
same,GI50,[9],35 µM
same,TGI,[9],> 100 µM
same,GI50,[10],29.6 µM
same,TGI,[10],> 100 µM
same,GI50,[11],0.854 µM
same,TGI,[11],12 µM
same,GI50,[12],1.31 µM
same,TGI,[12],> 100 µM
same,GI50,[13],2.19 µM
same,TGI,[13],32.7 µM
same,GI50,[14],1.07 µM
same,TGI,[14],35.4 µM
same,GI50,[15],10.5 µM
same,TGI,[15],64.5 µM
same,GI50,[16],1.45 µM
same,TGI,[16],18.8 µM
same,GI50,[17],0.494 µM
same,TGI,[17],4.16 µM
same,GI50,[18],17 µM
same,TGI,[18],49.3 µM
same,GI50,[19],0.3 µM
same,TGI,[19],4.41 µM
same,GI50,[20],14.4 µM
same,TGI,[20],34 µM
same,GI50,[21],21.2 µM
same,TGI,[21],> 100 µM
same,GI50,[22],10.9 µM
same,TGI,[22],30.4 µM
same,GI50,[23],11.7 µM
same,TGI,[23],46.1 µM
same,GI50,[24],5.49 µM
same,TGI,[24],36.9 µM
same,GI50,[25],0.919 µM
same,TGI,[25],15.5 µM
same,GI50,[26],26.2 µM
same,TGI,[26],> 100 µM
same,GI50,[27],23.9 µM
same,TGI,[27],> 100 µM
same,GI50,[28],18.4 µM
same,TGI,[28],> 100 µM
same,GI50,[29],12 µM
same,TGI,[29],25.2 µM
same,GI50,[30],49.9 µM
same,TGI,[30],> 100 µM
same,GI50,[31],11.2 µM
same,TGI,[31],24.5 µM
same,GI50,[58],10.6 µM
same,TGI,[58],52.4 µM
same,GI50,[32],25.4 µM
same,TGI,[32],> 100 µM
same,GI50,[33],0.587 µM
same,TGI,[33],22.5 µM
same,GI50,[34],4.88 µM
same,TGI,[34],24.5 µM
same,GI50,[35],17.3 µM
same,TGI,[35],31.2 µM
same,GI50,[36],25.1 µM
same,TGI,[36],> 100 µM
same,GI50,[37],11.7 µM
same,TGI,[37],75.5 µM
same,GI50,[38],10.5 µM
same,TGI,[38],23.9 µM
same,GI50,[39],34.5 µM
same,TGI,[39],> 100 µM
same,GI50,[40],0.119 µM
same,TGI,[40],0.857 µM
same,GI50,[41],7.47 µM
same,TGI,[41],> 100 µM
same,GI50,[42],7.94 µM
same,TGI,[42],21.6 µM
same,GI50,[43],34.1 µM
same,TGI,[43],> 100 µM
same,GI50,[44],18.2 µM
same,TGI,[44],96.8 µM
same,GI50,[45],0.259 µM
same,TGI,[45],1.77 µM
same,GI50,[59],0.771 µM
same,TGI,[59],14.6 µM
same,GI50,[47],0.235 µM
same,TGI,[47],2.69 µM
same,GI50,[48],3.41 µM
same,TGI,[48],24.1 µM
same,GI50,[49],11.4 µM
same,TGI,[49],41.7 µM
same,GI50,[50],45.9 µM
same,TGI,[50],> 100 µM
same,GI50,[51],15.1 µM
same,TGI,[51],52.5 µM
same,GI50,[60],0.676 µM
same,TGI,[60],15.3 µM
same,GI50,[52],1.49 µM
same,TGI,[52],21 µM
same,GI50,[53],25.8 µM
same,TGI,[53],> 100 µM
same,GI50,[54],16.2 µM
same,TGI,[54],57.1 µM
same,GI50,[55],0.912 µM
same,TGI,[55],23.6 µM
same,GI50,[56],0.589 µM
same,TGI,[56],11.3 µM
same,GI50,[57],10.2 µM
same,TGI,[57],> 100 µM
